Article PMC7588595, “Small-molecule active pharmaceutical ingredients of approved cancer therapeutics inhibit human aspartate/asparagine-β-hydroxylase” (Bioorganic & Medicinal Chemistry, 2020)
Counter-ions that a name gives are not always drawn. Like-named read-outs stand apart in the source and are kept apart here.

Target: T1, human AspH (His6-AspH315–758) (Homo sapiens, UniProt Q12797)
T1 construct: N-Terminally His6-tagged human AspH315–758 (His6-AspH315–758) was produced in Escherichia coli BL21 (DE3) cells; made in house; host or cells: Escherichia coli BL21 (DE3), pET-28a(+) vector
T1 sequence (Q12797 315-758): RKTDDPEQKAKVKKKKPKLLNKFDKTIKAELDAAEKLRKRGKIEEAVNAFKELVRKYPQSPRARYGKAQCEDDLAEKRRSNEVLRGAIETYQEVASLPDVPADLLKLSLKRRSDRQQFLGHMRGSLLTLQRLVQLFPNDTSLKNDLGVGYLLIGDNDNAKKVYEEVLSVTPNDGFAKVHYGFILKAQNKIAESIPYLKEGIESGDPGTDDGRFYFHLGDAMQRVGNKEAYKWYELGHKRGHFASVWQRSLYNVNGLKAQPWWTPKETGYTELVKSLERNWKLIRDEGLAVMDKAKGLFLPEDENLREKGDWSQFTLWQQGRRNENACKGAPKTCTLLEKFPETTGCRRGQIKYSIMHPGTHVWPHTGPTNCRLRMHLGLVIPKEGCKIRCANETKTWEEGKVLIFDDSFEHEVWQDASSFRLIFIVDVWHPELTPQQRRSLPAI
Assay: SPE-MS AspH inhibition assay (hFX-CP101-119 substrate hydroxylation)
Assay type: biochemical

[1] = AspH-inhibitor screening, 384-well Plate 1
[2] = AspH-inhibitor screening, 384-well Plate 1, substrate conversion
[3] = AspH-inhibitor screening, Plate 1-duplicate
[4] = AspH-inhibitor screening, Plate 1-duplicate, substrate conversion

Compound	Plate 1 (% inhibition) [1]	Plate 1 (% conversion) [2]	Plate 1-duplicate (% inhibition) [3]	Plate 1-duplicate (% conversion) [4]	Plate 1 (% conversion)	Plate 1-duplicate (% conversion)	Plate 1 (% inhibition)	Plate 1-duplicate (% inhibition)
COc1cc(Nc2ncc(F)c(Nc3ccc4c(n3)NC(=O)C(C)(C)O4)n2)cc(OC)c1OC [R406_Tamatinib]	11.05%	44.65%	0.72%	51.68%				
Cn1c(Nc2ccc(C(F)(F)F)cc2)nc2cc(Oc3ccnc(-c4ncc(C(F)(F)F)[nH]4)c3)ccc21 [RAF265]	38.69%	31.88%	34.01%	35.17%				
CNC(=O)c1ccc(N2C(=S)N(c3ccc(C#N)c(C(F)(F)F)c3)C(=O)C23CCC3)cc1F [RD162]	-1.12%	50.27%	-2.20%	53.13%				
COc1cc(F)c(F)c(Nc2ccc(I)cc2F)c1NS(=O)(=O)C1(C[C@H](O)CO)CC1 [RDEA119_Refametinib]	2.93%	48.40%	4.05%	50.03%				
O=C(c1ccc(OCCN2CCCCC2)cc1)c1c(-c2ccc(O)cc2)sc2cc(O)ccc12 [Raloxifene]	17.35%	41.74%	14.45%	44.88%				
CO[C@H]1C[C@@H]2CC[C@@H](C)[C@@](O)(O2)C(=O)C(=O)N2CCCC[C@H]2C(=O)O[C@H]([C@H](C)C[C@@H]2CC[C@@H](O)[C@H](OC)C2)CC(=O)[C@H](C)/C=C(\C)[C@@H](O)[C@@H](OC)C(=O)[C@H](C)C[C@H](C)/C=C/C=C/C=C/1C [Rapamycin (sirolimus)]	-16.43%	57.34%	-26.38%	65.13%				
CO[C@H]1C[C@@H]2CC[C@@H](C)[C@@](O)(O2)C(=O)C(=O)N2CCCC[C@H]2C(=O)O[C@H]([C@H](C)C[C@@H]2CC[C@@H](OP(C)(C)=O)[C@H](OC)C2)CC(=O)[C@H](C)/C=C(\C)[C@@H](O)[C@@H](OC)C(=O)[C@H](C)C[C@H](C)/C=C/C=C/C=C/1C [Ridaforolimus]	16.02%	42.35%	8.84%	47.66%				
CS(=O)(=O)c1ccc(C2=C(c3ccccc3)C(=O)OC2)cc1 [Rofecoxib (Vioxx)]	0.07%	49.72%	2.99%	50.56%				
C/C=C1\NC(=O)[C@H]2CSSCC/C=C/[C@H](CC(=O)N[C@H](C(C)C)C(=O)N2)OC(=O)[C@H](C(C)C)NC1=O [Romidepsin]	31.77%	35.08%	29.51%	37.41%				
CC[C@H](CO)Nc1nc(NCc2ccccc2)c2ncn(C(C)C)c2n1 [Roscovitine_Selicilib]					48.67%	50.17%		
Cc1ccc(C(=O)N(CCCN)[C@@H](c2oc3cc(Cl)ccc3c(=O)c2Cc2ccccc2)C(C)C)cc1 [SB 743921]	-12.94%	55.72%	-30.32%	67.08%				
CC(C)n1cnc2c(NCCc3ccc(O)cc3)nc(-c3csc4ccccc34)nc21.Cl [SR1 HCl]	33.05%	34.49%	43.66%	30.39%				
CCC(C)(C)C(=O)O[C@H]1C[C@@H](C)C=C2C=C[C@H](C)[C@H](CC[C@@H]3C[C@@H](O)CC(=O)O3)[C@H]21 [Simvastatin]	-15.63%	56.97%	-16.09%	60.02%				
CNC(=O)c1cc(Oc2ccc(NC(=O)Nc3ccc(Cl)c(C(F)(F)F)c3)cc2)ccn1 [Sorafenib]	50.93%	26.23%	41.45%	31.48%				
CN1CCN(c2nc(C3=C(c4c[nH]c5ccccc45)C(=O)NC3=O)c3ccccc3n2)CC1 [Sotrastaurin]	20.56%	40.26%	11.48%	46.35%				
O=[N+]([O-])c1ccc2c(c1)S(=O)(=O)C=C2 [Stattic]	9.52%	45.35%	9.59%	47.29%				
CN(N=O)C(=O)N[C@@H](C=O)[C@@H](O)[C@H](O)[C@H](O)CO [Streptozocin]	6.30%	46.84%	4.95%	49.58%				

Compound	Plate 1 (% inhibition) [1]	Plate 1 (% conversion) [2]	Plate 1-duplicate (% inhibition) [3]	Plate 1-duplicate (% conversion) [4]	Plate 1 (% conversion)	Plate 1-duplicate (% conversion)	Plate 1 (% inhibition)	Plate 1-duplicate (% inhibition)
CCN(CC)CCNC(=O)c1c(C)[nH]c(/C=C2\C(=O)Nc3ccc(F)cc32)c1C [Sunitinib]	-40.27%	68.35%	-34.40%	69.10%				
Cn1c(=O)c(F)c(Nc2ccc(I)cc2F)c2c(=O)n(C[C@@H](O)CO)cnc21 [TAK-733]	-22.47%	60.13%	-22.24%	63.07%				
CCS(=O)(=O)c1cccc(-c2cc(C(=O)NC3CCN(C)CC3)c(C)c3[nH]c4ncc(C)cc4c23)c1 [TAK-901]	-15.73%	57.02%	-23.07%	63.48%				
Cc1cc(C(C)Nc2ccccc2)c2nc(N3CCOCC3)cc(=O)n2c1 (stereo not shown) [TGX-221]	-1.55%	50.47%	0.18%	51.95%				
CC/C(=C(\c1ccccc1)c1ccc(OCCN(C)C)cc1)c1ccccc1 [Tamoxifen citrate]	67.86%	18.41%	59.34%	22.61%				
COc1cc2c(N3CCN(C(=O)Nc4ccc(OC(C)C)cc4)CC3)ncnc2cc1OCCCN1CCCCC1 [Tandutinib]	-11.71%	55.16%	-8.54%	56.28%				
C[C@@H]1CCN(C(=O)CC#N)C[C@@H]1N(C)c1ncnc2[nH]ccc12 [Tasocitinib_Tofacitinib]	9.63%	45.30%	6.13%	49.00%				
Cn1nnc2c(C(N)=O)ncn2c1=O [Temozolomide]	5.12%	47.38%	8.46%	47.85%				
CO[C@H]1C[C@@H]2CC[C@@H](C)[C@@](O)(O2)C(=O)C(=O)N2CCCC[C@H]2C(=O)O[C@H]([C@H](C)C[C@@H]2CC[C@@H](OC(=O)C(C)(CO)CO)[C@H](OC)C2)CC(=O)[C@H](C)/C=C(\C)[C@@H](O)[C@@H](OC)C(=O)[C@H](C)C[C@H](C)/C=C/C=C/C=C/1C [Temsirolimus]	35.77%	33.23%	28.92%	37.70%				
COc1cc([C@@H]2c3cc4c(cc3[C@@H](O[C@@H]3O[C@@H]5CO[C@@H](c6cccs6)O[C@H]5[C@H](O)[C@H]3O)[C@H]3COC(=O)[C@H]23)OCO4)cc(OC)c1O [Teniposide]	10.91%	44.71%	6.57%	48.78%				
Cl.c1ccc(C2CN3CCSC3=N2)cc1 (stereo not shown) [Tetramisole HCl]					46.13%	48.14%	7.83%	7.87%
O=C1CCC(N2C(=O)c3ccccc3C2=O)C(=O)N1 (stereo not shown) [Thalidomide]	3.16%	48.29%	1.43%	51.33%				
S=P(N1CC1)(N1CC1)N1CC1 [Thio-TEPA]	17.81%	41.53%	7.73%	48.21%				
Nc1nc2nc[nH]c2c(=S)[nH]1 [Thioguanine]	7.28%	46.39%	8.14%	48.00%				
Cn1cncc1[C@@](N)(c1ccc(Cl)cc1)c1ccc2c(c1)c(-c1cccc(Cl)c1)cc(=O)n2C [Tipifarnib (Zarnestra)]	-67.01%	80.70%	-61.42%	82.50%				
CC[C@@]1(O)C(=O)OCc2c1cc1n(c2=O)Cc2cc3c(CN(C)C)c(O)ccc3nc2-1 [Topotecan hydrochloride]	4.87%	47.50%	6.81%	48.66%				
